This passage reports IC50 results from ChEMBL document CHEMBL6134916, “Novel Substituted Cyclic Compounds as SLC6A19 Inhibitors for Treating Phenylketonuria and Other Amino Acidurias” (ACS Med Chem Lett, 2025).

By IC50 is commonly meant the point on the concentration scale where inhibition reaches its midpoint.

The assay addresses T1, Sodium-dependent neutral amino acid transporter B(0)AT1 (Homo sapiens, UniProt Q695T7).
T1 sequence (Q695T7 whole entry): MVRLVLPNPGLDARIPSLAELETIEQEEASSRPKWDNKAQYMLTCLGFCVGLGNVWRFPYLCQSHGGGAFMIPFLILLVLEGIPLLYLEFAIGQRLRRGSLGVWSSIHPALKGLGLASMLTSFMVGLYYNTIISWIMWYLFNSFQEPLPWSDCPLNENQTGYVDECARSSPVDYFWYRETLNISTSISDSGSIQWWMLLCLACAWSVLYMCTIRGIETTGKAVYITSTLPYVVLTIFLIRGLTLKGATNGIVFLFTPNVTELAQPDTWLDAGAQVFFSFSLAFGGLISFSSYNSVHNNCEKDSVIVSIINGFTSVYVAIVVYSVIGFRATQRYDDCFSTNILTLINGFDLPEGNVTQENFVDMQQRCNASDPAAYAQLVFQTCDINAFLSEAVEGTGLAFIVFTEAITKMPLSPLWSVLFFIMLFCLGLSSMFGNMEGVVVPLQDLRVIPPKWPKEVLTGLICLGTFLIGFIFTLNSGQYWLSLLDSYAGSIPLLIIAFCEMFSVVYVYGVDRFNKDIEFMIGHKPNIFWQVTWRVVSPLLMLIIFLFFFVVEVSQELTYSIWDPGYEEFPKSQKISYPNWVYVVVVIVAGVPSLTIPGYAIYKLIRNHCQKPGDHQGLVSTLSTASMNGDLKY
Description: Inhibition of human SLC6A19 expressed in MDCK cells co-expressing human TMEM27 using 13C6/15N-L-Isoleucine as substrate preincubated for 20 mins followed by substrate addition and measured after 20 mins by stable isotope uptake assay. In kind it is cell-based.
`CNC(=O)c1cc2c(-c3ccc(C(=O)NCc4cccc(C(F)(F)F)c4)cc3)ccc(F)c2[nH]1` had a 50% inhibitory concentration (IC50) of 4 nM. With `CNC(=O)c1cc2c(-c3ccc(C(=O)NCc4cccc(C(F)(F)F)c4)cc3)cc(C)c(F)c2[nH]1` the figure was 5 nM; with `CNC(=O)c1cc2c(-c3ccc(C(=O)NCc4cccc(C(F)(F)F)c4)cc3)cc(C(C)C)cc2[nH]1`, 5 nM; with `CNC(=O)c1cc2c(-c3ccc(C(=O)NCc4cc(C(F)(F)F)ccc4F)cc3F)cccc2[nH]1`, 4 nM.

`CNC(=O)c1cc2c(-c3ccc(C(=O)NCc4cccc(C(F)(F)F)c4)cc3Cl)cccc2[nH]1` registered a half-inhibitory concentration (IC50) of 3 nM. As for `CNC(=O)c1cc2c(-c3ccc(C(=O)NCc4cccc(C(F)(F)F)c4)cc3)c(OC)ccc2[nH]1`, the figure is 5 nM.
